Experimental data: patent US20250250542A1, “CULTURE METHOD” (Quell Therapeutics Limited, priority 2023, published 2025)

Tests used:
[1] = test system: bulk Tregs from patient donor material; test: % of FOXP3+ cells in the expansion product from patient donor material; type: cell-based, human; settings: 100 nM rapamycin
From the text: Leukopaks were supplied by BioIVT.
Leukopaks were used to derive Treg populations. […] Where indicated, CD4+CD25+CD127−/low (Bulk Tregs) were used.

[2] = test system: Tregs from patient material; test: Transduction efficiency of expansion product (% Dextramer+/QBEND+)
Description: A lentiviral vector was used to transduce the cells. The vector encodes an RQR8 safety switch, a FOXP3 polypeptide and an HLA-A2-specific CAR.
The Tregs were rested in Treg culture media (X-VIVO 15 media (Lonza) supplemented with 5% Human AB serum (heat-inactivated; Merck)) containing 100 nM of rapamycin for 1 hour before activation. The Tregs were then activated by adding CD3 and CD28 beads and cultured for 24 or 48 hours (1+24 and 1+48 conditions respectively). At 24 or 48 hours, the cells were washed with fresh Treg culture media and centrifuged. The supernatant was removed and the cell pellet was resuspended in fresh Treg culture media. The expansion was then continued in the fresh Treg culture media (X-VIVO 15 media (Lonza) supplemented with 5% Human AB serum (heat-inactivated; Merck)) further containing IL-2 (Proleukin, Clinigen Healthcare) and lentiviral supernatant but no rapamycin. Cells were re-fed every 2 to 3 days with Treg culture media supplemented with IL-2. Cells were harvested by removing the CD3 and CD28 beads 14 days after activation.

CO[C@H]1C[C@@H]2CC[C@@H](C)[C@@](O)(O2)C(=O)C(=O)N2CCCC[C@H]2C(=O)O[C@H]([C@H](C)C[C@@H]2CC[C@@H](O)[C@H](OC)C2)CC(=O)[C@H](C)/C=C(\C)[C@@H](O)[C@@H](OC)C(=O)[C@H](C)C[C@H](C)/C=C/C=C/C=C/1C [rapamycin]
% CD4+CD25+FOXP3+ cells ([1]; donor LTX-008, 1 + 24 h, day 14 (control 80.8)): 91.2% | % CD4+CD25+FOXP3+ cells ([1]; donor LTX-008, 1 + 48 h, day 14 (control 80.8)): 91.4% | % CD4+CD25+FOXP3+ cells ([1]; donor LTX-0011, 1 + 48 h, day 14 (control 57.3)): 92.6% | % CD4+CD25+FOXP3+ cells ([1]; donor LTX-0012, 1 + 48 h, day 14 (control 92.8)): 98.2% | % CD4+CD25+FOXP3+ cells ([1]; donor LTX-0013, 1 + 48 h, day 14 (control 41.0)): 89.9% | % Dextramer+/QBEND+ ([2]; donor LTX-008, 1 + 24 (control 36)): 30% | % Dextramer+/QBEND+ ([2]; donor LTX-008, 1 + 48 (control 36)): 37.8% | % Dextramer+/QBEND+ ([2]; donor LTX-0011, 1 + 48 (control 20.5)): 30.8% | % Dextramer+/QBEND+ ([2]; donor LTX-0012, 1 + 48 (control 10)): 11%
